Results taken from PubChem BioAssay AID1259411 (Chemical Carcinogenesis Research Information System (CCRIS), 2018).
Activity calls are given as the source filed them. How the calls were made is not given here.

Tested on: rodent carcinogenicity bioassays, tumor incidence
Assay: CCRIS carcinogenicity studies
Summary of the method: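 NCI-built, expert-reviewed records of carcinogenicity and related test outcomes (mutagenicity, tumor promotion/inhibition) compiled from published and report sources, historical span 1985-2011, not updated.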

O=C1Nc2ccc(Cl)cc2C(c2ccccc2)=NC1O (configuration not stated)
carcinogen call (Species: MOUSE, Strain/Sex: B6C3F1/FEMALE, Route: ORAL, Dose: 0, 125, 2500, 5000 PPM IN FEED FOR 104-105 WK (STUDY DURATION: 105 WK), Dose: 0, 125, 2500, 5000 PPM IN FEED FOR 104-105 WK (STUDY DURATION: 105 WK), Tumor Site: Type of Lesion: LIVER: HEPATOBLASTOMA, HEPATOCELLULAR ADENOMA, HEPATOCELLULAR CARCINOMA, THYROID: FOLLICULAR CELL ADENOMA): active; positive | carcinogen call (Species: MOUSE, Strain/Sex: B6C3F1/MALE, Route: ORAL, Dose: 0, 125, 2500, 5000 PPM IN FEED FOR 104-105 WK (STUDY DURATION: 105 WK), Dose: 0, 125, 2500, 5000 PPM IN FEED FOR 104-105 WK (STUDY DURATION: 105 WK), Tumor Site: Type of Lesion: LIVER: HEPATOBLASTOMA, HEPATOCELLULAR ADENOMA, HEPATOCELLULAR CARCINOMA): active; positive | carcinogen call (Species: MOUSE, Strain/Sex: SWISS-WEBSTER/FEMALE, Route: ORAL, Dose: 0, 2500, 5000 PPM IN FEED FOR 57 WK (STUDY DURATION: 57 WK), Dose: 0, 2500, 5000 PPM IN FEED FOR 57 WK (STUDY DURATION: 57 WK), Tumor Site: Type of Lesion: LIVER: HEPATOCELLULAR ADENOMA, HEPATOCELLULAR CARCINOMA): active; positive | carcinogen call (Species: MOUSE, Strain/Sex: SWISS-WEBSTER/MALE, Route: ORAL, Dose: 0, 2500, 5000 PPM IN FEED FOR 57 WK (STUDY DURATION: 57 WK), Dose: 0, 2500, 5000 PPM IN FEED FOR 57 WK (STUDY DURATION: 57 WK), Tumor Site: Type of Lesion: LIVER: HEPATOCELLULAR ADENOMA, HEPATOCELLULAR CARCINOMA): active; positive | carcinogen call (Species: MOUSE, Strain/Sex: SWISS/MALE,FEMALE, Route: ORAL, Dose: 0.05, 0.15% IN DIET FOR 9 MO, Tumor Site: Type of Lesion: LIVER: HEPATOCELLULAR ADENOMA): active; positive | carcinogen call (Species: RAT, Strain/Sex: F344/FEMALE, Route: ORAL, Dose: 0, 625, 2500, 5000 PPM FOR 105 WK (STUDY DURATION: 105 WK), Dose: 0, 625, 2500, 5000 PPM FOR 105 WK (STUDY DURATION: 105 WK)): inactive; negative | carcinogen call (Species: RAT, Strain/Sex: F344/FEMALE, Route: ORAL, Dose: 0, 625, 2500, 5000 PPM IN DIET FOR 105 WK (STUDY DURATION: 105 WK), Dose: 0, 625, 2500, 5000 PPM IN DIET FOR 105 WK (STUDY DURATION: 105 WK)): inactive; negative | carcinogen call (Species: RAT, Strain/Sex: F344/FEMALE, Route: ORAL, Dose: 0, 10,000 PPM FOR 26 WK (STUDY DURATION: 105 WK)): inactive; negative | carcinogen call (Species: RAT, Strain/Sex: F344/FEMALE, Route: ORAL, Dose: 0, 10000 PPM IN DIET FOR 26 WK (STUDY DURATION: 105 WK)): inactive; negative | carcinogen call (Species: RAT, Strain/Sex: F344/MALE, Route: ORAL, Dose: 0, 625, 2500, 5000 PPM IN DIET FOR 105 WK (STUDY DURATION: 105 WK), Dose: 0, 625, 2500, 5000 PPM IN DIET FOR 105 WK (STUDY DURATION: 105 WK), Tumor Site: Type of Lesion: KIDNEY: RENAL TUBULE ADENOMA): equivocal | carcinogen call (Species: RAT, Strain/Sex: F344/MALE, Route: ORAL, Dose: 0, 10000, PPM IN DIET FOR 26 WK (STUDY DURATION: 105 WK), Dose: 0, 10000, PPM IN DIET FOR 26 WK (STUDY DURATION: 105 WK), Tumor Site: Type of Lesion: KIDNEY: RENAL TUBULE ADENOMA): equivocal | carcinogen call (Species: RAT, Strain/Sex: F344/MALE, Route: ORAL, Dose: 0, 10,000 PPM FOR 26 WK (STUDY DURATION: 105 WK), Tumor Site: Type of Lesion: KIDNEY: RENAL TUBULE ADENOMA): active; positive

O=C1NS(=O)(=O)c2ccccc21
carcinogen call (Species: MONKEY, Strain/Sex: AFRICAN GREEN, RHESUS, CYNOMOLGUS, HYBRID/MALE, FEMALE, Route: ORAL, Dose: 0, 25 MG/KG BW IN FOOD 5 D/WK FOR DURATION OF STUDY (STUDY DURATION: 24 YR)): inactive; negative | carcinogen call (Species: RAT, Strain/Sex: ANALBUMINEMIC/MALE, Route: ORAL, Dose: 0, 5% IN DIET FOR 80 WK (STUDY DURATION: 80 WK)): inactive; negative | carcinogen call (Species: RAT, Strain/Sex: SPRAGUE-DAWLEY/MALE, Route: ORAL, Dose: 0, 5% IN DIET FOR 80 WK (STUDY DURATION: 80 WK)): inactive; negative

C1CC[CH]([Sn]([CH]2CCCCC2)[CH]2CCCCC2)CC1
carcinogen call (Species: Mouse, Strain/Sex: B6C3F1/Female (50/group), Route: Oral, Dose: 0, 1, 3, 6 mg/kg of 98% pure cyhexatin in diet for 2 years, Dose: 0, 1, 3, 6 mg/kg of 98% pure cyhexatin in diet for 2 years): inactive; negative, (dpr evaluator indicated inadequate justification of dose and too narr | carcinogen call (Species: Mouse, Strain/Sex: B6C3F1/Male (50/group), Route: Oral, Dose: 0, 1, 3, 6 mg/kg of 98% pure cyhexatin in diet for 2 years, Dose: 0, 1, 3, 6 mg/kg of 98% pure cyhexatin in diet for 2 years): inactive; negative, (dpr evaluator indicated inadequate justification of dose and too narr

O=C(O)C(Cl)(Cl)Cl
carcinogen call (Species: MOUSE, Strain/Sex: B6C3F1/FEMALE, Route: INTRAPERITONEAL, Dose: 0, 1000 NMOL TOTAL DOSE, 1/3 AND 2/3 OF THE TOTAL DOSE ADMINISTERED AT 8 AND 15 DAYS OF AGE RESPECTIVELY, ANIMALS TERMIN): inactive; negative | carcinogen call (Species: MOUSE, Strain/Sex: B6C3F1/FEMALE, Route: INTRAPERITONEAL, Dose: 0, 2000 NMOL TOTAL DOSE, 3/7 AND 4/7 OF THE TOTAL DOSE ADMINISTERED AT 8 AND 15 DAYS OF AGE RESPECTIVELY, ANIMALS TERMIN): inactive; negative | carcinogen call (Species: MOUSE, Strain/Sex: B6C3F1/FEMALE, Route: ORAL, Dose: 0, 2, 6.67, 20 MMOL/L IN DRINKING WATER FOR 360 D (STUDY DURATION: 360 D), Dose: 0, 2, 6.67, 20 MMOL/L IN DRINKING WATER FOR 360 D (STUDY DURATION: 360 D), Tumor Site: Type of Lesion: LIVER: CARCINOMA): active; positive | carcinogen call (Species: MOUSE, Strain/Sex: B6C3F1/FEMALE, Route: ORAL, Dose: 0, 2, 6.67, 20 MMOL/L IN DRINKING WATER FOR 576 D (STUDY DURATION: 576 D), Dose: 0, 2, 6.67, 20 MMOL/L IN DRINKING WATER FOR 576 D (STUDY DURATION: 576 D), Tumor Site: Type of Lesion: LIVER: ADENOMA, CARCINOMA): active; positive | carcinogen call (Species: MOUSE, Strain/Sex: B6C3F1/MALE, Route: INTRAPERITONEAL, Dose: 0, 1000 NMOL TOTAL DOSE, 1/3 AND 2/3 OF THE TOTAL DOSE ADMINISTERED AT 8 AND 15 DAYS OF AGE RESPECTIVELY, ANIMALS TERMIN): inactive; negative | carcinogen call (Species: MOUSE, Strain/Sex: B6C3F1/MALE, Route: INTRAPERITONEAL, Dose: 0, 2000 NMOL TOTAL DOSE, 3/7 AND 4/7 OF THE TOTAL DOSE ADMINISTERED AT 8 AND 15 DAYS OF AGE RESPECTIVELY, ANIMALS TERMIN): inactive; negative | carcinogen call (Species: MOUSE, Strain/Sex: B6C3F1/MALE, Route: ORAL, Dose: 0, 1, 2 G/L IN DRINKING WATER FOR 52 WK (STUDY DURATION: 52 WK), Dose: 0, 1, 2 G/L IN DRINKING WATER FOR 52 WK (STUDY DURATION: 52 WK), Tumor Site: Type of Lesion: LIVER: ADENOMA OR HEPATOCELLULAR CARCINOMA): active; positive | carcinogen call (Species: MOUSE, Strain/Sex: B6C3F1/MALE, Route: ORAL, Dose: 0, 5 G/L (0; 31 MILLIMOLAR) IN DRINKING WATER FOR 61 WK (STUDY DURATION: 61 WK), Dose: 0, 5 G/L (0; 31 MILLIMOLAR) IN DRINKING WATER FOR 61 WK (STUDY DURATION: 61 WK), Tumor Site: Type of Lesion: LIVER: CARCINOMA): active; positive | carcinogen call (Species: RAT, Strain/Sex: F344/MALE, Route: ORAL, Dose: 0, 0.05, 0.5, 5 G/L IN DRINKING WATER FOR 104 WK (STUDY DURATION: 104 WK), Dose: 0, 0.05, 0.5, 5 G/L IN DRINKING WATER FOR 104 WK (STUDY DURATION: 104 WK)): inactive; negative

CCCC[N+](=O)[O-]
carcinogen call (Species: RAT, Strain/Sex: F344/MALE, Route: GAVAGE, Dose: 0, 2 MMOL/KG BW 1/WK FOR 50 WK (STUDY DURATION: 83 WK)): inactive; negative
